Assay results as given in BigSolDB 2.1.

Cc1ccc(NC(=O)C(C)Cl)cc1 (stereo not given)
solubility (mole fraction) (in 2-butanone, 271.23 K): 0.0774 | solubility (mole fraction) (in 2-butanone, 275.52 K): 0.0829 | solubility (mole fraction) (in 2-butanone, 280.9 K): 0.0892 | solubility (mole fraction) (in 2-butanone, 285.45 K): 0.105 | solubility (mole fraction) (in 2-butanone, 291.46 K): 0.115 | solubility (mole fraction) (in 2-butanone, 296.73 K): 0.128 | solubility (mole fraction) (in 2-butanone, 302.41 K): 0.13 | solubility (mole fraction) (in 2-butanone, 307.63 K): 0.149 | solubility (mole fraction) (in 2-butanone, 313.15 K): 0.173 | solubility (mole fraction) (in 2-butanone, 319.11 K): 0.208 | solubility (mole fraction) (in acetone, 271.96 K): 0.0616 | solubility (mole fraction) (in acetone, 283.37 K): 0.0767 | solubility (mole fraction) (in acetone, 287.02 K): 0.0811 | solubility (mole fraction) (in acetone, 290.81 K): 0.0861 | solubility (mole fraction) (in acetone, 294.37 K): 0.0917 | solubility (mole fraction) (in acetone, 300.04 K): 0.105 | solubility (mole fraction) (in acetone, 302.89 K): 0.114 | solubility (mole fraction) (in acetone, 307.95 K): 0.136 | solubility (mole fraction) (in acetone, 310.94 K): 0.15 | solubility (mole fraction) (in acetone, 315.55 K): 0.155 | solubility (mole fraction) (in toluene, 273.24 K): 0.00517 | solubility (mole fraction) (in toluene, 278.33 K): 0.00719 | solubility (mole fraction) (in toluene, 285.5 K): 0.00929 | solubility (mole fraction) (in toluene, 290.93 K): 0.0125 | solubility (mole fraction) (in toluene, 297.29 K): 0.0168 | solubility (mole fraction) (in toluene, 301.24 K): 0.02 | solubility (mole fraction) (in toluene, 307.73 K): 0.0278 | solubility (mole fraction) (in toluene, 312.06 K): 0.0356 | solubility (mole fraction) (in toluene, 315.66 K): 0.0413 | solubility (mole fraction) (in toluene, 321.66 K): 0.0579
